Measurements from ChEMBL document CHEMBL1201862, “PubChem BioAssay data set” (2004).
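How tested: cells in 96-well plates exposed to compound for 48 hours at five concentrations. Abbreviation: GI50, concentration required for 50% inhibition of growth.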 Active and inactive are the calls of the source. No stated cut-off is given here; in the data, active = GI50 up to about 1.1 µM and inactive = higher.

What was measured:
Assay in all cases: NCI anticancer screen, dose series, 48 h
DMS-114 = test system: DMS-114
SNB-78 = test system: SNB-78
RXF 631 = test system: RXF 631
DMS-273 = test system: DMS-273
XF498 = test system: XF498
DLD-1 = test system: DLD-1
LXFL 529 = test system: LXFL 529
HOP-18 = test system: HOP-18
M19-MEL = test system: M19-MEL

| Structure (SMILES) | GI50 (DMS-114) | GI50 (SNB-78) | GI50 (RXF 631) | GI50 (DMS-273) | GI50 (XF498) | GI50 (DLD-1) | GI50 (LXFL 529) | GI50 (HOP-18) | GI50 (M19-MEL) |
| --- | --- | --- | --- | --- | --- | --- | --- | --- | --- |
| O=[N+]([O-])c1ccc(/C=N/C23CC4CC(CC(C4)C2)C3)cc1 | 91.2 µM (inactive) | > 100 µM (inactive) | > 100 µM (inactive) | > 100 µM (inactive) | > 100 µM (inactive) | > 100 µM (inactive) | > 100 µM (inactive) | > 100 µM (inactive) | > 100 µM (inactive) |
| CN(C)/C=C/C(=O)c1cccc(C(=O)/C=C/N(C)C)n1 | – | > 100 µM (inactive) | – | > 100 µM (inactive) | > 100 µM (inactive) | > 100 µM (inactive) | > 100 µM (inactive) | > 100 µM (inactive) | > 100 µM (inactive) |
| CC(C)=CC(=O)OC1C2C(C)=CC(=O)C(O)C2(C)C2C3(O)OCC24C(CC(=O)OC14)C(C)C3O (configuration not stated) | – | 0.0311 µM (active) | – | 0.00348 µM (active) | 0.0246 µM (active) | 0.0211 µM (active) | – | – | – |
| O=C1c2c(c3c4ccccc4n(CC4CO4)c3c3[nH]c4ccccc4c23)C(=O)N1Cc1ccccc1 (configuration not stated) | > 100 µM (inactive) | > 100 µM (inactive) | > 100 µM (inactive) | > 100 µM (inactive) | 3.7 µM (inactive) | > 10 µM (inactive) | > 100 µM (inactive) | – | > 100 µM (inactive) |
| CC1=NN(C(=O)Cc2ccccc2)C(=O)/C1=C\c1ccc([N+](=O)[O-])cc1 | > 100 µM (inactive) | > 100 µM (inactive) | – | – | > 100 µM (inactive) | > 100 µM (inactive) | > 100 µM (inactive) | – | > 100 µM (inactive) |
| N#CCN1C(=O)c2cc([N+](=O)[O-])cc3cc([N+](=O)[O-])cc(c23)C1=O | 15.2 µM (inactive) | 16.7 µM (inactive) | 20 µM (inactive) | 23.9 µM (inactive) | 12.2 µM (inactive) | 7.05 µM (inactive) | 9.23 µM (inactive) | 64.3 µM (inactive) | 14.3 µM (inactive) |
| O=c1c2ccccc2nc(-c2cccc(Cl)c2)n1NCC1(O)OCC(O)C(O)C1O (configuration not stated) | > 100 µM (inactive) | > 100 µM (inactive) | 66.5 µM (inactive) | > 100 µM (inactive) | – | – | 93.1 µM (inactive) | – | > 100 µM (inactive) |
| CCOC(=O)CC(C)C1(C(=O)OCC)CCCCC1=O (configuration not stated) | 20.3 µM (inactive) | > 100 µM (inactive) | > 100 µM (inactive) | 15 µM (inactive) | > 100 µM (inactive) | 35 µM (inactive) | > 100 µM (inactive) | > 100 µM (inactive) | > 100 µM (inactive) |
| CCN(CC)CC(=O)O[C@]1(CC)C(=O)OCc2c1cc1n(c2=O)Cc2cc3ccccc3nc2-1 | 0.0142 µM (active) | 0.953 µM (active) | – | < 0.01 µM (active) | 0.2 µM (active) | 0.916 µM (active) | 0.404 µM (active) | 0.0908 µM (active) | 0.0902 µM (active) |
| CN1C(=O)N(c2nc3ccccc3[nH]2)C(C)(C)C1=O | > 100 µM (inactive) | > 100 µM (inactive) | – | > 100 µM (inactive) | > 100 µM (inactive) | > 100 µM (inactive) | > 100 µM (inactive) | > 100 µM (inactive) | > 100 µM (inactive) |
| CCCOP(=S)(N1CC1)N1CC1 | > 100 µM (inactive) | > 100 µM (inactive) | – | > 100 µM (inactive) | > 100 µM (inactive) | > 100 µM (inactive) | – | 40.7 µM (inactive) | > 100 µM (inactive) |
| CCOC(=O)/C(ON)=C(/CC/C(C(=O)OC)=C(\ON)C(=O)OCC)C(=O)OC | > 100 µM (inactive) | > 100 µM (inactive) | > 100 µM (inactive) | > 100 µM (inactive) | > 100 µM (inactive) | > 100 µM (inactive) | > 100 µM (inactive) | > 100 µM (inactive) | > 100 µM (inactive) |
| COC(=O)N/N=C(/CCC(=O)Nc1ccc(C)c(C)c1)CC(=O)C(C)(C)C | > 100 µM (inactive) | – | – | > 100 µM (inactive) | > 100 µM (inactive) | > 100 µM (inactive) | > 100 µM (inactive) | > 100 µM (inactive) | > 100 µM (inactive) |
| CCOC(=O)C1=C(C)N(c2ccc(C)cc2)C2=C(C(=O)N(c3ccccc3)C2c2ccccc2)C1c1ccccc1 (configuration not stated) | 17.9 µM (inactive) | – | > 25 µM (inactive) | > 25 µM (inactive) | > 25 µM (inactive) | 12.3 µM (inactive) | 20 µM (inactive) | – | > 25 µM (inactive) |
| CCOC(=O)c1[nH]c(COC(C)=O)c(CCCOC(C)=O)c1CCCOC(C)=O | – | > 100 µM (inactive) | – | > 100 µM (inactive) | > 100 µM (inactive) | – | > 100 µM (inactive) | – | – |
| ClC/C=C/COC1CCCCO1 (configuration not stated) | 33.2 µM (inactive) | > 100 µM (inactive) | 34.8 µM (inactive) | 62.2 µM (inactive) | 25.2 µM (inactive) | > 100 µM (inactive) | > 100 µM (inactive) | > 100 µM (inactive) | > 100 µM (inactive) |
| CC1=CC=C2C(C)(C)CC[C@@H]3OC(=O)[C@H]1[C@]23C | > 100 µM (inactive) | 37.1 µM (inactive) | > 100 µM (inactive) | > 100 µM (inactive) | > 100 µM (inactive) | > 100 µM (inactive) | > 100 µM (inactive) | > 100 µM (inactive) | > 100 µM (inactive) |
| Cc1cc2c(cc1C)[n+]([O-])c(C(=O)C/C(=N/NC(=S)NN)C(=O)Nc1cccc(C(F)(F)F)c1)c[n+]2[O-] | > 100 µM (inactive) | > 100 µM (inactive) | > 100 µM (inactive) | > 100 µM (inactive) | – | > 100 µM (inactive) | > 100 µM (inactive) | > 100 µM (inactive) | > 100 µM (inactive) |
| O=C1C2C=CC(n3[nH]c(=O)n(Cc4ccccc4)c3=O)CC2C(=O)N1c1cccc(Cl)c1 (configuration not stated) | > 100 µM (inactive) | > 100 µM (inactive) | – | > 100 µM (inactive) | 65.9 µM (inactive) | > 100 µM (inactive) | > 100 µM (inactive) | > 100 µM (inactive) | > 100 µM (inactive) |
| OCc1cc2c(cn1)[nH]c1ccc(NCc3ccccc3)cc12 | 15.6 µM (inactive) | – | 27.4 µM (inactive) | 20.7 µM (inactive) | 25.8 µM (inactive) | 34.8 µM (inactive) | 17.9 µM (inactive) | – | 22.2 µM (inactive) |
| O=C1OC(c2ccccc2)=N/C1=C/NC(Cc1ccccc1)C(=O)O (configuration not stated) | – | > 100 µM (inactive) | > 100 µM (inactive) | > 100 µM (inactive) | – | > 100 µM (inactive) | > 100 µM (inactive) | – | > 100 µM (inactive) |
| N#CC(C#N)=CSc1ccccc1 | 17.7 µM (inactive) | – | 20.6 µM (inactive) | 21.4 µM (inactive) | 53.7 µM (inactive) | 24 µM (inactive) | 24.3 µM (inactive) | > 100 µM (inactive) | – |
| N#Cc1cc([N+](=O)[O-])ccc1NC(=O)/C(=N\NC(=O)c1ccncc1)C(c1cnc2ccc([N+](=O)[O-])cc2n1)[N+](=O)[O-] (configuration not stated) | 1.6 µM (inactive) | 6.34 µM (inactive) | 2.32 µM (inactive) | 1.82 µM (inactive) | 1.69 µM (inactive) | – | 1.57 µM (inactive) | 1.5 µM (inactive) | 0.566 µM (active) |
| COc1ccc(/C=C/c2nnc(S)[nH]2)cc1OC | > 100 µM (inactive) | > 100 µM (inactive) | – | > 100 µM (inactive) | > 100 µM (inactive) | > 100 µM (inactive) | > 100 µM (inactive) | – | > 100 µM (inactive) |
| Nc1nc2c(ncn2CC(CO)CC(c2ccccc2)P(=O)(O)O)c(=O)[nH]1 (configuration not stated) | > 100 µM (inactive) | > 100 µM (inactive) | – | > 100 µM (inactive) | > 100 µM (inactive) | > 100 µM (inactive) | > 100 µM (inactive) | > 100 µM (inactive) | > 100 µM (inactive) |
| CC1=CC(=O)CC2(C)CC[C@@H]3C[C@]12OC3(C)C (some centres not stated) | > 100 µM (inactive) | > 100 µM (inactive) | – | > 100 µM (inactive) | > 100 µM (inactive) | > 100 µM (inactive) | > 100 µM (inactive) | > 100 µM (inactive) | > 100 µM (inactive) |
| O=c1cc(-c2ccccc2F)[nH]c2cc3c(cc12)OCO3 | 0.508 µM (active) | 0.23 µM (active) | – | 0.189 µM (active) | 1.5 µM (inactive) | 0.0441 µM (active) | 0.0403 µM (active) | 0.544 µM (active) | 0.236 µM (active) |
| N=C1NC(=O)N2CC12 (configuration not stated) [IMEXON] | > 100 µM (inactive) | – | – | > 100 µM (inactive) | > 100 µM (inactive) | > 100 µM (inactive) | > 100 µM (inactive) | > 100 µM (inactive) | – |
